# Measured values reported in US20030220521A1, “Renal-selective prodrugs for control of renal sympathetic nerve activity in the treatment of hypertension” (G.D. Searle & Co., priority 1989, published 2003).
# Read-outs that look alike come from different tables or passages of the source.
# Legend:
# [1] = target: T1, dopamine beta-hydroxylase (DBH; EC 1.14.17.1) (Bos taurus, UniProt P15101); assay: Assay V: in vitro DBH inhibition (norepinephrine production, HPLC); format: biochemical, bovine; conditions: for inhibition at 20 µM: read-out: % Inhibition of DBH; for inhibitory effect on dopamine-β-hydroxylase activity: tested at 20 uM
# T1 construct: DBH, purified from bovine adrenals (Sigma); purchased Sigma; host or cells: bovine adrenals (tissue-purified)
# T1 sequence (P15101 1-610): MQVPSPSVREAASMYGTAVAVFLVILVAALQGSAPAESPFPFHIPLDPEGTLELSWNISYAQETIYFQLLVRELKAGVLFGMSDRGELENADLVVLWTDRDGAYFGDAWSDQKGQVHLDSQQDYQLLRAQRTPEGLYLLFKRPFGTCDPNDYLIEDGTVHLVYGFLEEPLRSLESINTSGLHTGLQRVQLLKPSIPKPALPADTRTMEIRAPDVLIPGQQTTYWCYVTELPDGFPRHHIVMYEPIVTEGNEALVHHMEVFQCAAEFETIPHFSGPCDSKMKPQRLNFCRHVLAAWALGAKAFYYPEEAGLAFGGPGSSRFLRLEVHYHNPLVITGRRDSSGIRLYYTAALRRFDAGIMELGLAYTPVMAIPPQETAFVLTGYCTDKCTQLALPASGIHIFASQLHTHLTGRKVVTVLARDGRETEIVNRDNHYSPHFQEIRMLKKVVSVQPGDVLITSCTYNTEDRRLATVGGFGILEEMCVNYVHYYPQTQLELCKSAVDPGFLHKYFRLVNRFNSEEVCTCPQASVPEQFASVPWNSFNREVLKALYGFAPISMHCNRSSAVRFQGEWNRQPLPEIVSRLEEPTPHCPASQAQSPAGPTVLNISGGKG
# Procedure: In order to characterize the relative potency of the Ex. #859 conjugate and its various potential metabolites as inhibitors of dopamine beta-hydroxylase (DBH; EC 1.14.17.1), the enzyme activity was determined in vitro in the presence of these compounds. DBH, purified from bovine adrenals (Sigma) was incubated at 37° C. in buffer containing 20 mM dopamine as substrate. The reaction was stopped by addition of 0.5 M perchloric acid. The precipitate was removed and the product of the enzyme activity (norepinephrine), contained in the clear supernatant, was analyzed by HPLC. The chromatographic separation used a reversed phase C-18 column run isocratically with 0.2 M ammonium acetate (pH 5.2) as the mobile phase. The amount of norepinephrine produced by the enzyme-substrate mixture was analyzed by measuring the peak intensity (absorbance) at 280 nm for norepinephrine as it was eluted at 4.5 minutes, using a photo-diode array detector. The result of adding either fusaric acid or the Ex. #859 conjugate to the incubate at various concentrations is shown in Table XXIII and FIG. 6. […] Fusaric acid and Ex. #859 and two more possible metabolites (Ex #858 and fusaric acid hydrazide) were tested at 20 uM.
# [2] = Assay IV: metabolism of conjugate to fusaric acid in rat kidney homogenate; format: in vitro ADME
# Procedure: A freshly excised rat kidney was homogenized in 10 ml cold buffer (100 mM Tris, 15 mM glycylglycine, pH 7.4) with a Polytron Tissue Homogenizer (Brinkmann). The resulting suspension, diluted with buffer, was incubated in the presence of the Ex. #859 conjugate at 37° C. At various times aliquots were removed, deproteinized with an equal volume of cold trichloroacetic acid (25%) and centrifuged. The supernatant was injected onto a C-18 reverse-phase HPLC column and eluted isocratically with a mixture of acetonitrile and water (20:80 v/v) containing trifluoroacetic acid (0.05%). Eluted compounds were monitored by absorbance at 254 nm and compared to standards run under identical conditions. In the assay using pure kidney enzyme homogenate, the Ex. #859 conjugate was also incubated under the same conditions as described except that 5 mg of gamma-glutamyl transpeptidase (Sigma, 23 units/mg) and 10 mg of acylase I (Sigma, 4800 units/mg) were added in place of the homogenate. Analysis by HPLC was performed in a manner identical to that used for the kidney homogenate experiment.
# [3] = tested on: Spontaneously Hypertensive Rats (SHR); assay: Assay VII: acute effects on arterial pressure in anesthetized SHR; format: in vivo, rat; conditions: for Mean arterial pressure: i.v.: fusaric acid and fusaric acid hydrazide 100 mg/kg, Ex. #859 250 mg/kg
# Procedure: Mean arterial pressure effects of fusaric acid hydrazide (100 mg/kg, i.v.), fusaric acid (100 mg/kg, i.v.) and Ex. #859 conjugate (250 mg/kg, i.v.) are shown in Table XXVII during a vehicle control period and 60 min post-injection of compound in anesthetized SHR. Rats were prepared as described above, minus the renal artery flow probe.
# SHR = assay: Assay VIII: chronic 5 day i.v. infusion, mean arterial pressure in SHR; format: in vivo, rat; conditions: for chronic effect on mean arterial pressure compared to vehicle: SHR, 5 day infusion, Ex. #859 5 mg/hr, fusaric acid 2.5 mg/hr
# Procedure: The Ex. #859 conjugate and saline vehicle were infused continuously for 5 days in SHR. Mean arterial pressure was measured (Gould Chart Recorder, model 3800; Statham P23Db pressure transducer) via an indwelling femoral artery catheter between 10:00 a.m. and 2:00 p.m. each day. The Ex. #859 conjugate (5 mg/hr), fusaric acid (2.5 mg/hr), and saline (100 μ1/hr) were infused via a jugular vein catheter with a Harvard infusion pump.
structure (smiles),measurement,setting,value
"CCCCc1ccc(C(=O)NNC(=O)CCC(NC(C)=O)C(=O)O)nc1 [Ex. #859, N-acetyl-L-glutamic acid, 5-[(5-butyl-2-pyridinyl)-carbonyl]hydrazide]",Norepinephrine Peak Intensity (Abs 280) in the presence of compound,[1]; compound 0.10 μM,0.51 Abs 280
same,Norepinephrine Peak Intensity (Abs 280) in the presence of compound,[1]; compound 1.00 μM,0.52 Abs 280
same,Norepinephrine Peak Intensity (Abs 280) in the presence of compound,[1]; compound 10.00 μM,0.61 Abs 280
same,Norepinephrine Peak Intensity (Abs 280) in the presence of compound,[1]; compound 100.00 μM,0.53 Abs 280
same,DBH inhibitory activity,[1]; concentrations up to 100 uM,no appreciable activity
same,inhibition at 20 µM,[1]; test compound 20 μM,1.5%
same,inhibitory effect on dopamine-β-hydroxylase activity,[1],Only fusaric acid had significant inhibitory effects
same,amount of fusaric acid liberated on incubation,"[2]; kidney homogenate, 37° C",linear increase
same,"other metabolites observed (fusaric acid hydrazide, gamma-glutamyl fusaric acid hydrazide)","[2]; kidney homogenate, 37° C",No fusaric acid hydrazide or gamma-glutamyl fusaric acid hydrazide was observed
same,Mean arterial pressure,[3]; 60 MIN post-injection,146 ± 15 mmHg
same,Mean arterial pressure,[3]; ZERO (vehicle control period),151 ± 9 mmHg
same,hypotensive effect / effect on mean arterial pressure,"[3]; i.v., 60 min post-injection",no effect
same,MAP (SE),"SHR; 5 mg/hr i.v. infusion, day 1",122 ± 9 mm Hg
same,MAP (SE),"SHR; 5 mg/hr i.v. infusion, day 2",115 ± 9 mm Hg
same,MAP (SE),"SHR; 5 mg/hr i.v. infusion, day 3",119 ± 11 mm Hg
same,MAP (SE),"SHR; 5 mg/hr i.v. infusion, day 4",121 ± 7 mm Hg
same,MAP (SE),"SHR; 5 mg/hr i.v. infusion, day 5",115 ± 8 mm Hg
same,MAP (SE),"SHR; 5 mg/hr i.v. infusion, day zero",146 ± 5 mm Hg
same,chronic effect on mean arterial pressure compared to vehicle,SHR,lowered mean arterial pressure similarly
"CCCCc1ccc(C(=O)O)nc1 [Fusaric Acid, 5-n-butylpicolinic acid]",concentration above which the enzyme is inhibited,"[1]; 20 mM dopamine as substrate, 37° C",> 1 µM
same,Norepinephrine Peak Intensity (Abs 280) in the presence of compound,[1]; compound 0.01 μM,0.59 Abs 280
same,Norepinephrine Peak Intensity (Abs 280) in the presence of compound,[1]; compound 0.10 μM,0.59 Abs 280
same,Norepinephrine Peak Intensity (Abs 280) in the presence of compound,[1]; compound 0.50 μM,0.60 Abs 280
same,Norepinephrine Peak Intensity (Abs 280) in the presence of compound,[1]; compound 1.00 μM,0.53 Abs 280
same,Norepinephrine Peak Intensity (Abs 280) in the presence of compound,[1]; compound 5.00 μM,0.25 Abs 280
same,Norepinephrine Peak Intensity (Abs 280) in the presence of compound,[1]; compound 10.00 μM,0.14 Abs 280
same,Norepinephrine Peak Intensity (Abs 280) in the presence of compound,[1]; compound 50.00 μM,0.00 Abs 280
same,Norepinephrine Peak Intensity (Abs 280) in the presence of compound,[1]; compound 100.00 μM,0.00 Abs 280
same,inhibition at 20 µM,[1],75.4%
same,inhibitory effect on dopamine-β-hydroxylase activity,[1],significant inhibitory effects
same,stability of liberated fusaric acid,[2]; kidney homogenate incubation conditions,remains stable
same,Mean arterial pressure,[3]; 60 MIN post-injection,110 ± 21 mmHg
same,Mean arterial pressure,[3]; ZERO (vehicle control period),164 ± 10 mmHg
same,MAP (SE),"SHR; 2.5 mg/hr i.v. infusion, day 1",118 ± 5 mm Hg
same,MAP (SE),"SHR; 2.5 mg/hr i.v. infusion, day 2",114 ± 7 mm Hg
same,MAP (SE),"SHR; 2.5 mg/hr i.v. infusion, day 3",122 ± 5 mm Hg
same,MAP (SE),"SHR; 2.5 mg/hr i.v. infusion, day 4",114 ± 6 mm Hg
same,MAP (SE),"SHR; 2.5 mg/hr i.v. infusion, day 5",114 ± 3 mm Hg
same,MAP (SE),"SHR; 2.5 mg/hr i.v. infusion, day zero",148 ± 6 mm Hg
same,chronic effect on mean arterial pressure compared to vehicle,SHR,lowered mean arterial pressure similarly
